From publication PMC11874377, “Fungal-derived methyldeoxaphomins target Plasmodium falciparum segregation through the inhibition of PfActin1” (Proceedings of the National Academy of Sciences of the …, 2025)
Several values for one entry are separate records, joined by “and”; a condition that tells them apart may be missing. Identical values can stand only once. Like-named read-outs stand apart in the source and are kept apart here.

What was measured:
[1] = test system: P. falciparum chloroquine-sensitive line 3D7; assay: SYBR Green I-based antiplasmodial assay, asexual blood stage, 3D7; type: cell-based, Plasmodium falciparum
Method: (§1) The antiplasmodial activity of these analogs was assessed in P. falciparum asexual blood stage using a SYBR Green I-based assay. Compounds were tested in both the multidrug resistant line Dd2, and the chloroquine-sensitive line 3D7, to probe any potential for preexisting resistance. […] These methyldeoxaphomin analogs were also cross-screened for cytotoxicity in the human cell line HepG2 to determine their selectivity for the Plasmodium parasite. […] This effect was maintained with analog NPDG-F where both R1 and R2 were substituted with OH groups. […] In addition, the hydroxyl group at carbon 7 seems to be critical for function as a drastic loss of potency was found in NPDG-D as compared to B and C. […]
(§2) Plasmodium blood stage culture
(§3) Parasite culture in the Chakrabarti lab was maintained following a modified Trager and Jensen protocol (Trager & Jensen, 1976) as previously described (Lee et al., 2021) with RPMI 1640 with 25 mM HEPES pH 7.4, 26 mM NaHCO3, 15 mg/L hypoxanthine, 0.5% Albumax II, 25 mg/L gentamycin, and 2% dextrose. Parasites were grown with human A+ erythrocytes obtained from Florida OneBlood. Cultures were kept in an incubator with 5% […]
(§4) Antiplasmodial activity screening
(§5) SYBR Green I-based fluorescence assay was performed as previously described (Lee et al., 2021) following protocols by Smilkstein et. al. (Smilkstein et al., 2004). Asynchronous Dd2 parasites were added to serially diluted compounds and incubated for 72 h at 5% CO2, 95% air at 37°C. Plates were then frozen at -80°C, thawed, and incubated for one hour with 1x SYBR Green I in a lysis buffer (20 mM Tris-HCL, 0.08% saponin, 5 mM EDTA, and 0.8% Triton X-100). Fluorescence was then read on a Synergy Neo2 multimode reader (BioTek Winsooki, VT). […]

[2] = test system: P. falciparum multidrug resistant line Dd2; assay: SYBR Green I-based antiplasmodial assay, asexual blood stage, Dd2; type: cell-based, Plasmodium falciparum
Method: as §1, §2, §3, §4, §5

[3] = test system: human HepG2 hepatoma cells; assay: cells; type: cell-based
Method: as §1
Cytotoxicity was assessed using an MTS (3-(4,5-Dimethylthiazol-2-yl)-5-(3-carboxymethoxyphenyl)-2-(4-sulfophenyl)-2H-tetrazolium) absorbance assay with human HepG2 hepatoma cells. Cells were maintained in MEM supplemented with 10%FBS, 1% Antibiotic/Antimycotic, 1 mM sodium pyruvate, and 0.15% sodium bicarbonate in a 5 % CO2, 95% air environment at 37°C. For the assay cells were seeded at a density of 2,250 cells per well on 384-well microtiter plates 24 h prior to compound addition. Following a 48-h incubation with compounds, MTS solution was added to wells and absorbance was read after 2-4 h on a Synergy Neo2 multimode reader (BioTek Winsooki, VT). Compound dose response curves and EC50 determination was performed using CDD Vault normalized to 5% triton and vehicle controls. […]

[4] = test system: P. falciparum; assay: Isobologram assay with NPDG-F; type: cell-based, Plasmodium falciparum; conditions: for IC50: single compounds, dose–response, Fig. 3A, read-out: Mean IC50 ± SEM; for relationship with NPDG-F at low concentrations: low / very low concentrations; for relationship with NPDG-F at higher concentrations: moderate to high / higher concentrations
Method: To further explore the relationship of NPDG-F with established actin-interfering drugs, an isobologram study was performed (Fig. 3). NPDG-F was added in combination with four inhibtors known to interfere with actin polymerization including a formin inhibitor SMIFH2, cofilin inhibitor SZ-3, F-actin targeting compound jasplakinolide, and G-actin targeting latrunculin B. The frontline antimalarial DHA was also added as a nonactin inhibitor control. After dose–response curves were generated (Fig. 3A), the fractional inhibitory concentrations (FICs) of NPDG-F and the combination drug were calculated and graphed. […]
as §2, §3, §4
as §5, with “VT). Compound dose response curves and EC50 determination was performed using CDD Vault normalized to 10 µM CQ and vehicle” for “VT).”
For isobologram assessment, inhibitors were tested using a 1:2 dilution with starting concentrations selected as 40 nM for DHA, 100 µM Latrunculin B, 100 µM SMIFH2, and 40 nM for jasplakinolide. These concentrations were selected to provide 2-3 points above […]
EC50s. The test inhibitor methyldeoxaphomin NPDG-F was then added in combination with the aforementioned inhibitors at concentrations ranging from 10 to 0.3125 µM. Dose-response curves were then generated for the available conditions where EC50s could be determined. The fractional inhibitor concentration of both compounds was then determined as described (Fivelman et al., 2004) for the available points and graphed on a scale of 0-1 also using Graphpad Prism version 10. […]

[5] = test system: P. falciparum; assay: Parasite reduction ratio (PRR); type: cell-based, Plasmodium falciparum; conditions: 10 × EC50
Method: After a 24 h lag phase, only 10^0.64 parasites are killed within the first replication cycle (48 h). […] We also examined the in vitro killing rate in Dd2 through flow cytometric analysis. […]
Parasite reduction ratio adapted from protocol by Sanz et al (Sanz et al., 2012). In brief, early ring stage mono-infected RBCs at 106 were incubated with a 10 x EC50 concentration of NPDG-F, DHA, or atovaquone for either 24, 48, 72, 96, or 120 h. Following incubations, cells were washed and serially diluted. After 3 weeks, growth was determined via SYBR […]
Green I staining. […]

[6] = Plasmodium falciparum, 3D7, average ± SEM of three replicates, read-out: 3D7: Average EC50
[7] = Plasmodium falciparum, 3D7, individual replicates, read-out: 3D7: EC50
[8] = Plasmodium falciparum, 3D7, means from triplicate experiments ± SEM, read-out: 3D7 EC50
[9] = Plasmodium falciparum, DD2, 72 h, read-out: Dd2 EC50, means from triplicate experiments ± SEM, 72 h
[10] = Plasmodium falciparum, DD2, read-out: Dd2: Average EC50, average ± SEM of three replicates
[11] = Plasmodium falciparum, DD2, read-out: Dd2: EC50, individual replicates
[12] = Homo sapiens, HepG2, 48 h, means from triplicate experiments ± SEM, 48-h incubation, read-out: HepG2 EC50
[13] = Homo sapiens, HepG2, average ± SEM of three replicates, read-out: HepG2: Average EC50
[14] = Homo sapiens, HepG2, individual replicates, read-out: HepG2: EC50
[15] = individual replicates, read-out: HepG2: EC50

`CC1CC=CC2C=C(CO)C(C)C3C(Cc4ccccc4)NC(=O)C23C(=O)C=CC(=O)C(O)C(C)C1` (stereo not shown) [Methyldeoxaphomin NPDG-D] showed an EC50 [1, 6] greater than 5 µM, an EC50 [1, 7] greater than 5 µM and an EC50 [1, 8] greater than 5 µM. For the same compound, the EC50 [2, 9] was greater than 5 µM, the EC50 [2, 10] was greater than 5 µM and the EC50 [2, 11] was greater than 5 µM. The EC50 [3, 12] was 8.2 µM, the EC50 [3, 13] was 8.2 ± 0.07 µM and the EC50 [3, 14] was 8.3 µM. It also gave an EC50 [3, 15] of 8.1 µM.

For `C/C1=C/C(=O)O[C@@H]2C[C@@H](CC[C@H](C)/C=C\CC1)O[C@@](O)([C@@H]1CSC(=O)N1)C2` [latrunculin B], the “fractional inhibitory concentration (FIC)” value ([4]; combination with NPDG-F) was “highest FIC values overall” and the IC50 [4] was 34.1 ± 1.51 µM.

For `O=C1C(O)=C([C@H]2CC[C@H](c3ccc(Cl)cc3)CC2)C(=O)c2ccccc21` [atovaquone], the “99.9% PCT (parasite clearance time)” value [5] was “more than 96 h”, the lag phase [5] was 24 h and the “log(PRR)” value [5] was 5.12.

`C=C1[C@@H](C)[C@H]2[C@H](Cc3ccccc3)NC(=O)[C@]23C(=O)/C=C/C(=O)C[C@@H](C)C[C@H](C)C/C=C/[C@H]3[C@@H]1O` [Methyldeoxaphomin NPDG-A] gave an EC50 [1, 6] greater than 5 µM, an EC50 [1, 7] greater than 5 µM and an EC50 [1, 8] greater than 5 µM. It also gave an EC50 [2, 9] greater than 5 µM, an EC50 [2, 10] greater than 5 µM and an EC50 [2, 11] greater than 5 µM. The “cytotoxicity in HepG2 at the highest concentration tested” value ([3]; 25 µM) was “no inhibition”, the EC50 [3, 12] was greater than 25 µM and the EC50 [3, 13] was greater than 25 µM. For the same compound, the EC50 [3, 14] was greater than 25 µM.

`O=C1NC(=S)N(c2cccc(Br)c2)C(=O)/C1=C/c1ccco1` [SMIFH2] was tested, and the “relationship with NPDG-F at low concentrations” value [4] was “primarily indifferent”, the “relationship with NPDG-F at higher concentrations” value [4] was “antagonistic” and the IC50 [4] was 11.3 ± 1.35 µM.

For `C[C@H]1[C@@H](O)O[C@@H]2O[C@@]3(C)CC[C@H]4[C@H](C)CC[C@@H]1[C@@]24OO3` [DHA, dihydroartemisinin], the “99.9% PCT (parasite clearance time)” value [5] was 32.5 h, the lag phase [5] was 0 h and the IC50 ([4]; Plasmodium falciparum) was 0.005 ± 0.001 µM. For the same compound, the “relationship with NPDG-F at low concentrations” value [4] was “somewhat synergistic” and the “relationship with NPDG-F at higher concentrations” value [4] was “antagonistic”.

`C=C1C(C)C2C(Cc3ccccc3)NC(=O)C23C(=O)C=CC(O)CC(C)CC(C)CC=CC3C1O` (stereo not shown) [Methyldeoxaphomin NPDG-E] was tested, and the EC50 [1, 6] was 2.8 ± 0.14 µM, the EC50 [1, 7] was 2.67 µM and the EC50 [1, 8] was 2.8 ± 0.14 µM. The EC50 ([1]; individual replicates, read-out: 3D7: EC50) was 2.6 µM and 3.04 µM, the EC50 [2, 9] was 2.6 µM and the EC50 [2, 10] was 2.6 ± 0.31 µM. The EC50 [2, 11] was 2.22 µM, the EC50 ([2]; read-out: Dd2: EC50, individual replicates) was 3.18 µM and 2.28 µM and the “Selectivity Index (SI)” value ([3]; HepG2 EC50/(mean of Dd2 EC50, 3D7 EC50)) was 9. It also gave an EC50 [3, 12] of 23 µM, an EC50 [3, 13] of 23 ± 0.92 µM and an EC50 [3, 14] of 21.3 µM. The EC50 [3, 15] was 24.7 µM and 23.2 µM.
